Assay results from US11034685B2, “Aminopyridine derivatives as TAM family kinase inhibitors” (SignalChem Lifesciences Corporation, priority 2013, dated 2021).

Experiments:
Format in all cases: biochemical
[1] = biological target: T1, Recombinant human Tyro3 (455-end) (Homo sapiens, UniProt Q06418); test: Kinase enzymatic activity assay ([33P]-ATP phosphate transfer), Tyro3; details: inhibitory activity on Tyro3; class symbols
T1 construct: GST (N); made in house; host or cells: Sf9 insect cells (baculovirus)
T1 sequence (Q06418 455-890 limits assumed): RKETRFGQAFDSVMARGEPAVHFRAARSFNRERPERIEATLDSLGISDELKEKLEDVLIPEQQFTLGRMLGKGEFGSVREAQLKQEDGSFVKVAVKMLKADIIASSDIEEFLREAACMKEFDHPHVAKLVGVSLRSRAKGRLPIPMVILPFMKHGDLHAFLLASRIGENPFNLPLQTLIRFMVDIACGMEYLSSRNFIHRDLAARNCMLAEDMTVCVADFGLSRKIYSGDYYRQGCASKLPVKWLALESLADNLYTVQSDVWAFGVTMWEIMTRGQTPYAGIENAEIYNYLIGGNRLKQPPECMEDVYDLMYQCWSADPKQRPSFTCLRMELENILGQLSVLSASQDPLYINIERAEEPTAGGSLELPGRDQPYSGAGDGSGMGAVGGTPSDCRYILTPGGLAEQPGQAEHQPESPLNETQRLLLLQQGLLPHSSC
Protocol: (§1) Preparation of Active Recombinant Kinase Proteins:
(§2) Recombinant human Tyro3 (455-end, the gene accession number NM_006293), human Axl (473-end, the gene accession number NM_021913) and human Mer (578-872, the gene accession number NM_006343) were independently expressed by baculovirus in Sf9 insect cells using an N-terminal GST tag. The recombinant proteins were stored at −70° C. in a medium containing 50 mM Tris-HCl, pH 7.5, 150 mM NaCl, 10 mM glutathione, 0.1 mM EDTA, 0.25 mM DTT, 0.1 mM PMSF and 25% glycerol. The recombinant proteins were aliquoted into smaller quantities after centrifugation to avoid repeated handling and multiple freeze/thaw cycles for the most favorable performance.
(§3) Preparation of Assay Reagents:
(§4) Kinase Assay Buffer: This buffer solution consisted of the following components: 25 mM MOPS, pH 7.2, 12.5 mM β-glycerol-phosphate, 25 mM MgCl2, 5 mM EGTA, 2 mM EDTA and DTT 0.25 mM which was added prior to use.
(§5) Kinase Dilution Buffer: Kinase Assay Buffer was diluted at a 1:4 ratio (5× dilution) with distilled water.
(§6) [^33P]-ATP assay cocktail: In a designated radioactive working area, a 250 μM [^33P]-ATP assay cocktail was prepared by the addition of the following components: 150 μL of 10 mM ATP stock solution, 100 μL [^33P]-ATP (1 mci/100 μL), 5.75 mL of kinase assay buffer. This solution was stored in 1 mL aliquots at −20 OC.
(§7) ATP stock solution (10 mM): The ATP stock solution was prepared by dissolving 55 mg of ATP in 10 mL of kinase assay buffer. It was stored in 200 μL aliquots at −20° C.
(§8) Active Kinase Stock Solution: The active recombinant kinase protein (0.1 μg/μL) was diluted with Kinase Dilution Buffer and the activity was assayed using a serial dilution method. The specific activity is expressed in nmoL/min/mg.
(§9) Substrates: poly(4:1 glu:tyr) is the substrate used for each kinase Tyro3, Axl and Mer: The peptide substrate was dissolved in water to give the final concentration of 1 mg/mL.
(§10) Test compound solution: Test compound was dissolved in DMSO to obtain a 10 mM solution. The assay solution was prepared by adding 5 μL of this solution to […] of 10% DMSO/water to obtain the final concentration of 50 μM.
(§11) The enzymatic activity of all three kinases was determined as follows. Using a 96-well plate, the wells were divided into three categories: Blank wells, […] and Test wells. In Test wells, 5 μL of the test compound solution and 5 μL of the substrate solution were added. In Control wells, 5 μL of 10% DMSO/water and 5 μL of the substrate solution were added. In Blank wells, 10 μL of 10% DMSO/water was added. To each well was added 10 μL of Active Kinase Stock Solution to make up the volume in each well to 20 μL. All test samples, controls and blanks were run in duplicate. The reaction was initiated by the addition of 5 μL of [^33P]-ATP assay cocktail, bringing the final volume up to 25 μL in every well. The mixture was incubated at room temperature for 30 minutes. The reaction was terminated by transferring 10 μL of the reaction mixture into a Millipore MultiScreen filter plate (cat. number MSPHN6B50). The filter plate was washed in a 1% phosphoric acid solution with constant gentle shaking for 15 minutes and this step was repeated once. After the plate was dried in air, scintillation fluid was added to each well and the radioactivity in each well in CPM was counted by a Microbeta TriLux. The corrected CPM in each test well was determined by subtracting the average value of Blank well values. Percentage of inhibition of the kinase enzymatic activity by the test compound was determined using the following formula: […]
(§12) The IC50 values were determined in a similar way following a serial dilution of the test compound. The percentage of inhibition at each concentration was calculated following the above formula. The IC50 was estimated from the curve of % Inhibition against Concentration in log unit using Prism 5, version 5.01.

human Axl (473-end) = biological target: T2, human Axl (473-end) (Homo sapiens, UniProt P30530); test: Kinase enzymatic activity assay ([33P]-ATP phosphate transfer), Axl; details: inhibitory activity on Axl; class symbols
T2 construct: GST (N); made in house; host or cells: Sf9 insect cells (baculovirus)
T2 sequence (P30530 473-894 limits assumed): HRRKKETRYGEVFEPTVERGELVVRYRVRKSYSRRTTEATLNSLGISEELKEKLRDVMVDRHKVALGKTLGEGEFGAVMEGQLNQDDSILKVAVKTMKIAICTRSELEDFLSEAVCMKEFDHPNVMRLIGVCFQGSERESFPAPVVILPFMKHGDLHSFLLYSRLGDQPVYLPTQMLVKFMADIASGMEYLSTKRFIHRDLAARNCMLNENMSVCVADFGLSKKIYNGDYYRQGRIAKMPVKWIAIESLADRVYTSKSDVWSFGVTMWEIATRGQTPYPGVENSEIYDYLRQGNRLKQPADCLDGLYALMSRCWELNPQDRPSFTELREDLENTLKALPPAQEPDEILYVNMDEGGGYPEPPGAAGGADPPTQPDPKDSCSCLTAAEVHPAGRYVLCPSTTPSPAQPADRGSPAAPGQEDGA
Protocol: as §1, §2, §3, §4, §5, §6, §7, §8, §9, §10, §11, §12

human Mer (578-872) = biological target: T3, human Mer (578-872) (Homo sapiens, UniProt Q12866); test: Kinase enzymatic activity assay ([33P]-ATP phosphate transfer), Mer; details: inhibitory activity on Mer; class symbols
T3 construct: GST (N); made in house; host or cells: Sf9 insect cells (baculovirus)
T3 sequence (Q12866 578-872): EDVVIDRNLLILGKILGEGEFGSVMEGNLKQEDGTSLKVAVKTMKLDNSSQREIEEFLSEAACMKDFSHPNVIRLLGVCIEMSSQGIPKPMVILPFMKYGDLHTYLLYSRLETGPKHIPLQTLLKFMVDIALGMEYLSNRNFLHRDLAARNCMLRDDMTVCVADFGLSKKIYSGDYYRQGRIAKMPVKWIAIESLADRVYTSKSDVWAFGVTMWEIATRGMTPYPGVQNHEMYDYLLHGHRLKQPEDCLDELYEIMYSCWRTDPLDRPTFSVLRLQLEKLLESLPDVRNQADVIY
Protocol: as §1, §2, §3, §4, §5, §6, §7, §8, §9, §10, §11, §12

Compound	IC50 [1] [nM]	IC50 (human Axl (473-end)) [nM]	IC50 (human Mer (578-872)) [nM]
CCCCCCCCCCCCN1CCC(n2cc(-c3cnc(N)c(-c4nc(-c5c(Cl)cccc5Cl)no4)c3)cn2)CC1 [3-(3-(2,6-dichlorophenyl)-1,2,4-oxadiazol-5-yl)-5-(1-(1-dodecylpiperidin-4-yl)-1H-pyrazol-4-yl)pyridin-2-amine]	< 500	1000 to 10000	< 500
CCN1CCC(n2cc(-c3cnc(N)c(-c4nc(-c5c(Cl)cccc5Cl)no4)c3)cn2)CC1 [3-(3-(2,6-dichlorophenyl)-1,2,4-oxadiazol-5-yl)-5-(1-(1-ethylpiperidin-4-yl)-1H-pyrazol-4-yl)pyridin-2-amine]	< 500	< 500	< 500
CN1CCC(n2cc(-c3cnc(N)c(-c4nc(-c5c(Cl)cccc5Cl)no4)c3)cn2)CC1 [3-(3-(2,6-dichlorophenyl)-1,2,4-oxadiazol-5-yl)-5-(1-(1-methylpiperidin-4-yl)-1H-pyrazol-4-yl)pyridin-2-amine]	< 500	< 500	< 500
Nc1ncc(-c2cnn(C3CCNCC3)c2)cc1-c1nc(-c2c(Cl)cccc2Cl)no1 [3-(3-(2,6-dichlorophenyl)-1,2,4-oxadiazol-5-yl)-5-(1-(piperidin-4-yl)-1H-pyrazol-4-yl)pyridin-2-amine]	< 500	< 500	< 500
Nc1ncc(-c2cnn(C3CCOCC3)c2)cc1-c1nc(-c2c(Cl)cccc2Cl)no1 [3-(3-(2,6-dichlorophenyl)-1,2,4-oxadiazol-5-yl)-5-(1-(tetrahydro-2H-pyran-4-yl)-1H-pyrazol-4-yl)pyridin-2-amine]	< 500	1000 to 10000	1000 to 10000
Nc1ncc(-c2cnn(C3CCNCC3)c2)cc1-c1nc(-c2ccccc2)no1 [3-(3-phenyl-1,2,4-oxadiazol-5-yl)-5-(1-(piperidin-4-yl)-1H-pyrazol-4-yl)pyridin-2-amine]	< 500	< 500	< 500
Nc1ncc(-c2cnn(C3CCOCC3)c2)cc1-c1nc(-c2ccccc2)no1 [3-(3-phenyl-1,2,4-oxadiazol-5-yl)-5-(1-(tetrahydro-2H-pyran-4-yl)-1H-pyrazol-4-yl)pyridin-2-amine]	> 10000	> 10000	> 10000
Nc1ncc(-c2cn[nH]c2)cc1-c1nc(-c2ccccc2)no1 [3-(3-phenyl-1,2,4-oxadiazol-5-yl)-5-(1H-pyrazol-4-yl)pyridin-2-amine]	1000 to 10000	500 to 1000	1000 to 10000
Nc1ncc(-c2cnn(C3CCNCC3)c2)cc1-c1noc(-c2cc(Cl)ccc2Cl)n1 [3-(5-(2,5-dichlorophenyl)-1,2,4-oxadiazol-3-yl)-5-(1-(piperidin-4-yl)-1H-pyrazol-4-yl)pyridin-2-amine]	< 500	< 500	500 to 1000
Nc1ncc(-c2cn[nH]c2)cc1-c1nnc(-c2cc(F)ccc2F)o1 [3-(5-(2,5-difluorophenyl)-1,3,4-oxadiazol-2-yl)-5-(1H-pyrazol-4-yl)pyridin-2-amine]	< 500	< 500	1000 to 10000
Nc1ncc(-c2cnn(C3CCNCC3)c2)cc1-c1nnc(-c2c(Cl)ccc(F)c2Cl)o1 [3-(5-(2,6-dichloro-3-fluorophenyl)-1,3,4-oxadiazol-2-yl)-5-(1-(piperidin-4-yl)-1H-pyrazol-4-yl)pyridin-2-amine]	< 500	< 500	< 500
CCCCCCCCCCCCN1CCC(n2cc(-c3cnc(N)c(-c4nnc(-c5c(Cl)cccc5Cl)o4)c3)cn2)CC1 [3-(5-(2,6-dichlorophenyl)-1,3,4-oxadiazol-2-yl)-5-(1-(1-dodecylpiperidin-4-yl)-1H-pyrazol-4-yl)pyridin-2-amine]	500 to 1000	1000 to 10000	1000 to 10000
CCN1CCC(n2cc(-c3cnc(N)c(-c4nnc(-c5c(Cl)cccc5Cl)o4)c3)cn2)CC1 [3-(5-(2,6-dichlorophenyl)-1,3,4-oxadiazol-2-yl)-5-(1-(1-ethylpiperidin-4-yl)-1H-pyrazol-4-yl)pyridin-2-amine]	< 500	< 500	< 500
CN1CCC(n2cc(-c3cnc(N)c(-c4nnc(-c5c(Cl)cccc5Cl)o4)c3)cn2)CC1 [3-(5-(2,6-dichlorophenyl)-1,3,4-oxadiazol-2-yl)-5-(1-(1-methylpiperidin-4-yl)-1H-pyrazol-4-yl)pyridin-2-amine]	< 500	< 500	< 500
Nc1ncc(-c2ccn(C3CCNCC3)c2)cc1-c1nnc(-c2c(Cl)cccc2Cl)o1 [3-(5-(2,6-dichlorophenyl)-1,3,4-oxadiazol-2-yl)-5-(1-(piperidin-4-yl)-1H-pyrrol-3-yl)pyridin-2-amine]	< 500	< 500	< 500
Nc1ncc(-c2cnn(C3CCOCC3)c2)cc1-c1nnc(-c2c(Cl)cccc2Cl)o1 [3-(5-(2,6-dichlorophenyl)-1,3,4-oxadiazol-2-yl)-5-(1-(tetrahydro-2H-pyran-4-yl)-1H-pyrazol-4-yl)pyridin-2-amine]	< 500	< 500	< 500
Nc1ncc(-c2cn[nH]c2)cc1-c1nnc(-c2c(Cl)cccc2Cl)o1 [3-(5-(2,6-dichlorophenyl)-1,3,4-oxadiazol-2-yl)-5-(1H-pyrazol-4-yl)pyridin-2-amine]	< 500	< 500	< 500
